Measurements taken from paper PMC6430017, “Structural and chemical insights into the covalent-allosteric inhibition of the protein kinase Akt” (Chemical Science, 2019).

What was measured:
Experiment in all cases: SelectScreen Z'LYTE kinase profiling
Assay type in all cases: biochemical
Settings in all cases: ATP at apparent KM
CDC42 BPB (MRCKB) = CDC42 BPB (MRCKB) (Homo sapiens, UniProt Q9Y5S2)
Procedure: (§1) protein kinases at a compound concentration of 1 µM. Measurements were performed in duplicates
(§2) and at the particular apparent ATP KM of each individual kinase employing the activity based Z’LYTE®
(§3) kinase assay of the SelectScreen® Kinase Profiling Services (ThermoFisher Scientific).
(§4) kinases at a compound concentration of 1 µM. Measurements were performed in duplicates and at
(§5) the particular apparent ATP KM of each individual kinase employing the activity based Z’LYTE® kinase
(§6) assay of the SelectScreen® Kinase Profiling Services (ThermoFisher Scientific).

PRKG1 = target: T1, PRKG1 (Homo sapiens, UniProt Q13976)
T1 sequence (Q13976 1-671): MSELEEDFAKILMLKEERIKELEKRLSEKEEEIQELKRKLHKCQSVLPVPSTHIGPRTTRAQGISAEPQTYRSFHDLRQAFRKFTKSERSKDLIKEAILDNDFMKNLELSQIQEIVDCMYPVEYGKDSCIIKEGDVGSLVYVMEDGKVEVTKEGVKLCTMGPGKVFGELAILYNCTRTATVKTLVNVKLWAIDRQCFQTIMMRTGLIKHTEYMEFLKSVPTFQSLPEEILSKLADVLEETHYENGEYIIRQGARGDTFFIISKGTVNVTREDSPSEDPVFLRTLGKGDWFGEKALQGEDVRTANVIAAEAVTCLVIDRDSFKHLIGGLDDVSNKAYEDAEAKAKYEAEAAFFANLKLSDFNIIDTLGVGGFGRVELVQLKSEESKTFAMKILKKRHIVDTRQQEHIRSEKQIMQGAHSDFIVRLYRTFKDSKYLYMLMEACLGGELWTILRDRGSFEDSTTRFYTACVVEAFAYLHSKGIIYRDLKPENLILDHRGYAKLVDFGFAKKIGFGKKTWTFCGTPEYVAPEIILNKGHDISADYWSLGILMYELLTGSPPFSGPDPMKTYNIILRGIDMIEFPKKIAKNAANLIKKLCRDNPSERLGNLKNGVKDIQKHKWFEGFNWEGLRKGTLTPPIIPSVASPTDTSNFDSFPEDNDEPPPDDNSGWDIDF

MAPKAPK3 = MAPKAPK3 (Homo sapiens, UniProt Q16644)
MAPKAPK3, sequence (Q16644 whole entry): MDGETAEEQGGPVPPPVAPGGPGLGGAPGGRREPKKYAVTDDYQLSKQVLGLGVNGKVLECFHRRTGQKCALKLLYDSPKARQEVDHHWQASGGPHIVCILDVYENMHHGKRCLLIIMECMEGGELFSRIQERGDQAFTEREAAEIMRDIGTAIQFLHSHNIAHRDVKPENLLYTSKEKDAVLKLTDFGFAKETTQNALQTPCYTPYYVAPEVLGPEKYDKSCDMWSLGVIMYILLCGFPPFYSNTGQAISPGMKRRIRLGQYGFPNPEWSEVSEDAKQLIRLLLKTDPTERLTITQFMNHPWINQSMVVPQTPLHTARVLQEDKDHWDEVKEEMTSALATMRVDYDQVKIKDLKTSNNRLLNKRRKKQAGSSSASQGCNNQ
Procedure: as §1, §2, §3, §4, §5, §6

PASK = PASK (Homo sapiens, UniProt Q96RG2)
PASK, sequence (Q96RG2 whole entry): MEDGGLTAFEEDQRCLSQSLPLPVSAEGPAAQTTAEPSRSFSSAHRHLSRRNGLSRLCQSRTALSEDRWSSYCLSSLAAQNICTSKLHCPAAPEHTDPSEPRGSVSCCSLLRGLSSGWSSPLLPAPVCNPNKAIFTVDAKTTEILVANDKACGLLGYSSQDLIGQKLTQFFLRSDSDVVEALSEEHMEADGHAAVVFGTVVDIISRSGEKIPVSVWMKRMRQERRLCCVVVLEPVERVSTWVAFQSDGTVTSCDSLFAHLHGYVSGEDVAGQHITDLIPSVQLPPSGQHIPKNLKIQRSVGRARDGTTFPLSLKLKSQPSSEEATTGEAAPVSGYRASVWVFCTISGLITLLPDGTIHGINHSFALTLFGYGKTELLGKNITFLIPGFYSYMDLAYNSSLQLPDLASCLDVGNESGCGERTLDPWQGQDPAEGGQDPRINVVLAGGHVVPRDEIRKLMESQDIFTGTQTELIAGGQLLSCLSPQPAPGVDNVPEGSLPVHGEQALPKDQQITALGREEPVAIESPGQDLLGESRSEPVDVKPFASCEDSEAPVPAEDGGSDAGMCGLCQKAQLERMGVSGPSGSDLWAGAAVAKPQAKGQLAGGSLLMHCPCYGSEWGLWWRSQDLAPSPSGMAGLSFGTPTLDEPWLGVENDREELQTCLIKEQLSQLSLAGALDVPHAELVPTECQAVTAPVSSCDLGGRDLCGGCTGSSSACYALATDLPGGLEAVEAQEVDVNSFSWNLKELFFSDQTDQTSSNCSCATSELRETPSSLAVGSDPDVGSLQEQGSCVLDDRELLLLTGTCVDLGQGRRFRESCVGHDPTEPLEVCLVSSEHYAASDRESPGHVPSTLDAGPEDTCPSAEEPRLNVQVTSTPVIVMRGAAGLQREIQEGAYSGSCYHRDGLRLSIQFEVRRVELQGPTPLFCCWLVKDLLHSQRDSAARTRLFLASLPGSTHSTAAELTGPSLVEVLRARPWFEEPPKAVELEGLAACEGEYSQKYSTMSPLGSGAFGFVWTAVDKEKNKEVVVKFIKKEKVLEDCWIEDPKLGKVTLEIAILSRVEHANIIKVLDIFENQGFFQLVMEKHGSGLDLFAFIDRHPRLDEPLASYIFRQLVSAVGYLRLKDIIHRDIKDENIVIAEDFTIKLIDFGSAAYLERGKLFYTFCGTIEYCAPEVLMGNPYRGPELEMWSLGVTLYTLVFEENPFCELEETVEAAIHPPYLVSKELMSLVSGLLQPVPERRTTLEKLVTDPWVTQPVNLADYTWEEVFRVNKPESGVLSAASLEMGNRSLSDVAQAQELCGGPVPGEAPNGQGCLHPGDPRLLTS
Procedure: as §1, §2, §3, §4, §5, §6

STK3 (MST2) = target: T2, STK3 (MST2) (Homo sapiens, UniProt Q13188)
T2 sequence (Q13188 1-491): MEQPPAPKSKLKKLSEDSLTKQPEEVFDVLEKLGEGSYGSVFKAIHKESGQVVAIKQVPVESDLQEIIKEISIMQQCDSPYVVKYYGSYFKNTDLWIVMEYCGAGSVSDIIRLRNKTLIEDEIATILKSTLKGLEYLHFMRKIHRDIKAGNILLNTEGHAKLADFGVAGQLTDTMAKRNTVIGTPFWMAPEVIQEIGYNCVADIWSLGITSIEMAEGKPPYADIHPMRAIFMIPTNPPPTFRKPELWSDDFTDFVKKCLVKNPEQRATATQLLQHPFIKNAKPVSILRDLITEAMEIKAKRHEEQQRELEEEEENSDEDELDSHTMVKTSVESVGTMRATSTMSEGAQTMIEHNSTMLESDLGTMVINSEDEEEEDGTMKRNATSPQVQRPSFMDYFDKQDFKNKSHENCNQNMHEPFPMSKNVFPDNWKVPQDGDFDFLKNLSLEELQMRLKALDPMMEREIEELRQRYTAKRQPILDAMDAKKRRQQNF
Procedure: as §1, §2, §3, §4, §5, §6

AMPK A1/B1/G1 = AMPK A1/B1/G1 (Homo sapiens, UniProt Q13131)
Procedure: as §1, §2, §3, §4, §5, §6

PRKCB1 (PKC beta I) = PRKCB1 (PKC beta I) (Homo sapiens, UniProt P05771)
Procedure: as §1, §2, §3, §4, §5, §6

ERBB2 (HER2) = ERBB2 (HER2) (Homo sapiens, UniProt P04626)
Procedure: as §1, §2, §3, §4, §5, §6

PDGFRA (PDGFR alpha) = PDGFRA (PDGFR alpha) (Homo sapiens, UniProt P16234)
PDGFRA (PDGFR alpha), sequence (P16234 24-1089): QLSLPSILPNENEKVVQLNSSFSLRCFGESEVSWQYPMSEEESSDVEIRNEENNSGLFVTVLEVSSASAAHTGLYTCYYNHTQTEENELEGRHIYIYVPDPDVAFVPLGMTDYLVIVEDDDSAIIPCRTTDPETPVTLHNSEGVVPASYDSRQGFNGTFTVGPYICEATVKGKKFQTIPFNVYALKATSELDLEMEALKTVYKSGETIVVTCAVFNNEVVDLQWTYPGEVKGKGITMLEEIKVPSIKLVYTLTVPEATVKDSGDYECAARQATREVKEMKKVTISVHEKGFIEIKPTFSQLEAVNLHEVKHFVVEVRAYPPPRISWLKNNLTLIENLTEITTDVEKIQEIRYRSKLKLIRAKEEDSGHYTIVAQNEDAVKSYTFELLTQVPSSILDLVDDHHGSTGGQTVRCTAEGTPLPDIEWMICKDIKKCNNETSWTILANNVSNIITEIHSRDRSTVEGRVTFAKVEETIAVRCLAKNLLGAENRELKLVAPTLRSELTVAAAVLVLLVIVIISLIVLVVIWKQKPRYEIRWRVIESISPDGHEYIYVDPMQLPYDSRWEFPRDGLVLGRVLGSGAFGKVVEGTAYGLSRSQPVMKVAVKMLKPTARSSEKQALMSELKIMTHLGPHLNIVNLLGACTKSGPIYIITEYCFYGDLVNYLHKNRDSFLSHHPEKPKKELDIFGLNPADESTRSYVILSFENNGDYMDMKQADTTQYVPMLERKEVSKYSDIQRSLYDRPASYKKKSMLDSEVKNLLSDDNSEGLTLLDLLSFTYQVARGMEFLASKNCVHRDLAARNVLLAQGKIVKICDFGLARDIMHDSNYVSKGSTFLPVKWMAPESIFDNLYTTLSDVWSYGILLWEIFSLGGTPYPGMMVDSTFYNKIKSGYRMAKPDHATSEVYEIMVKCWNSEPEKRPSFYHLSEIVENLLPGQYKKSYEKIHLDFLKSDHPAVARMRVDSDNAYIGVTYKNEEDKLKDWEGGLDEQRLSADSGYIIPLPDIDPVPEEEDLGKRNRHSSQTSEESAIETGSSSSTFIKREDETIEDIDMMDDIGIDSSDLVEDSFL
Procedure: as §1, §2, §3, §4, §5, §6

PLK1 = PLK1 (Homo sapiens, UniProt P53350)
PLK1, sequence (P53350 whole entry): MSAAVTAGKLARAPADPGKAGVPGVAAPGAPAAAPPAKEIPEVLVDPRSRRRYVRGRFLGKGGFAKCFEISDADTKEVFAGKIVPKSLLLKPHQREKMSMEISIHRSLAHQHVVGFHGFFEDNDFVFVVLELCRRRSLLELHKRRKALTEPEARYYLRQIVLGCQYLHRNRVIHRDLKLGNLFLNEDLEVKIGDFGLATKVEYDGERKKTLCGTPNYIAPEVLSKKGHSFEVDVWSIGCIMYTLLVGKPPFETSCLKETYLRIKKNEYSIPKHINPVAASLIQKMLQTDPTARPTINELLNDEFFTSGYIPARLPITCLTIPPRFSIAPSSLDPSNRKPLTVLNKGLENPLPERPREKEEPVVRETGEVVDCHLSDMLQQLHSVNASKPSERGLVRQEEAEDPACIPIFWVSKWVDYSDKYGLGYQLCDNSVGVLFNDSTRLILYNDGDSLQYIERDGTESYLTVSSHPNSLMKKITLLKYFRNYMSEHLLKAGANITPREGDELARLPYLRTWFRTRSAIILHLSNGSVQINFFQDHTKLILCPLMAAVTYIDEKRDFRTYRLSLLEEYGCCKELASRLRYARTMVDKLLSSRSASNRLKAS

PRKG2 (PKG2) = target: T3, PRKG2 (PKG2) (Homo sapiens, UniProt Q13237)
T3 sequence (Q13237 1-762): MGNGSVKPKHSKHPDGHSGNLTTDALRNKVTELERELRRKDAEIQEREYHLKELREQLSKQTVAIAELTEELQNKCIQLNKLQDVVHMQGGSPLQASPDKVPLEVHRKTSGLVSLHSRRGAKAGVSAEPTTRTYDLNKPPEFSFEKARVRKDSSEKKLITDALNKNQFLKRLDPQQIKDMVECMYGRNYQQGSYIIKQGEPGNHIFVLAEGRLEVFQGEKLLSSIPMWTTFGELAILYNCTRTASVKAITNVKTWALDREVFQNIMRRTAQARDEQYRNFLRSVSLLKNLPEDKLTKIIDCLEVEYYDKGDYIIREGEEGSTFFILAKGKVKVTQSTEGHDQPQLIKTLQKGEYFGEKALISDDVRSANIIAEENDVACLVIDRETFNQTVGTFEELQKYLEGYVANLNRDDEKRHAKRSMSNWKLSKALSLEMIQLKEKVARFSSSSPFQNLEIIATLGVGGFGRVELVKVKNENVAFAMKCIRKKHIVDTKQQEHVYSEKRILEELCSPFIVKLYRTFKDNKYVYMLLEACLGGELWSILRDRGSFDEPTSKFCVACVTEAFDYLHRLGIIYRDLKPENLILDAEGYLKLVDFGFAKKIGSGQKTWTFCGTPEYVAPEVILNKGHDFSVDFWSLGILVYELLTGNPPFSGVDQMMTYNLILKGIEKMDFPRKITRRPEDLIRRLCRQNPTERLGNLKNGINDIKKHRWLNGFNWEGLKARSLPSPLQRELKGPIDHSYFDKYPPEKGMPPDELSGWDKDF
Procedure: as §1, §2, §3, §4, §5, §6

CDC42 BPB (MRCKB), sequence (Q9Y5S2 whole entry): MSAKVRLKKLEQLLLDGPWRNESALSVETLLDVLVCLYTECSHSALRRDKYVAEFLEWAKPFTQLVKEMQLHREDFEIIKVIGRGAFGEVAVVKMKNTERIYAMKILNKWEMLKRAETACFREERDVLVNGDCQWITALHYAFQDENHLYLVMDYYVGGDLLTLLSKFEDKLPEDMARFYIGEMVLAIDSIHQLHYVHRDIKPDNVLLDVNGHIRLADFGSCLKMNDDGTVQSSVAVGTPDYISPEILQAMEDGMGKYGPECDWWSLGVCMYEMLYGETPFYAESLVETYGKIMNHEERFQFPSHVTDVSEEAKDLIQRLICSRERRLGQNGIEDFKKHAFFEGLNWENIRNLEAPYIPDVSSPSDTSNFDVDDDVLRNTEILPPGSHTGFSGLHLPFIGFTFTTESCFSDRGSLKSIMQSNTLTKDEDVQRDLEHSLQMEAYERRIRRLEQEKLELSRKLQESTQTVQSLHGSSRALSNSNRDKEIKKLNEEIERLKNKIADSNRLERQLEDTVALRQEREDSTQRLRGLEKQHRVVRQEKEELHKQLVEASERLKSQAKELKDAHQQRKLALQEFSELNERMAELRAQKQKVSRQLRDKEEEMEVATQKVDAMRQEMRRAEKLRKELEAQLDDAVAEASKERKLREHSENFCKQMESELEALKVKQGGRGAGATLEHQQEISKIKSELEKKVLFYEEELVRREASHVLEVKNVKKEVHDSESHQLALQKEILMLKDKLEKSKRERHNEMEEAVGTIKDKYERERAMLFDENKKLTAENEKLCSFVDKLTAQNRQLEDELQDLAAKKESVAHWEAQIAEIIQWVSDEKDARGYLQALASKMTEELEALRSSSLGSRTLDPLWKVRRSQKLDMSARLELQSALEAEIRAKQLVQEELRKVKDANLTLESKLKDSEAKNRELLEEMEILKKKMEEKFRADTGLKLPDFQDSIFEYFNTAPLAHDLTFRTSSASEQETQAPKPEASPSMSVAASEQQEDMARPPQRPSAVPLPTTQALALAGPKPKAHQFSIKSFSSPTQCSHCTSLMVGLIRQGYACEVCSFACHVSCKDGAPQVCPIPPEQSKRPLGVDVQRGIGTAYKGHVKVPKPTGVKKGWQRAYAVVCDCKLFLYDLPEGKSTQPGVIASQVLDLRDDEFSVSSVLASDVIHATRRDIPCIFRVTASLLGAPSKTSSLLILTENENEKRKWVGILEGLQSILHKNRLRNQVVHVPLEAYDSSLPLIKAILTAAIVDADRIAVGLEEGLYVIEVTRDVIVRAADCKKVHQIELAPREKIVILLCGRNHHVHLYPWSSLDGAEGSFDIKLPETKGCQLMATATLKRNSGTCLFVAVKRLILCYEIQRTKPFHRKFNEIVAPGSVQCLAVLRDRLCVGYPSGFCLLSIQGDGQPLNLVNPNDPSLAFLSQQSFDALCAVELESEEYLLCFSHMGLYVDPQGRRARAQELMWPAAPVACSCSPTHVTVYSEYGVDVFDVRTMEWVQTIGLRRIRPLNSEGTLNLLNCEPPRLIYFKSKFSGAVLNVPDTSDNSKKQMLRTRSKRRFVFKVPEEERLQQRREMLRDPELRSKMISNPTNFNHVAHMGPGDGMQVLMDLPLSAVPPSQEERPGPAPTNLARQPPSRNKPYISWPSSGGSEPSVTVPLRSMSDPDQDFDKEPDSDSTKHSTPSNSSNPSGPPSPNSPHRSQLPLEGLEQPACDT

## C=CC(=O)Nc1cccc(C(=O)NC2CCN(Cc3ccc(-c4nc5cc[nH]c(=O)c5cc4-c4ccccc4)cc3)CC2)c1 [30b]
CDC42 BPB (MRCKB)
  inhibition at 1 µM: -27%
PRKG1
  inhibition at 1 µM: 10%
MAPKAPK3
  inhibition at 1 µM: 23%
PASK
  inhibition at 1 µM: 29%
STK3 (MST2)
  inhibition at 1 µM: -19%
AMPK A1/B1/G1
  inhibition at 1 µM: 46%
PRKCB1 (PKC beta I)
  inhibition at 1 µM: 6%
ERBB2 (HER2)
  inhibition at 1 µM: -2%
PDGFRA (PDGFR alpha)
  inhibition at 1 µM: -7%
PLK1
  inhibition at 1 µM: 6%
PRKG2 (PKG2)
  inhibition at 1 µM: 5%

## C=CC(=O)Nc1cc(NC(=O)NC2CCN(Cc3ccc(-c4nc5cc[nH]c(=O)c5cc4-c4ccccc4)cc3)CC2)ccc1Cl [compound 27]
CDC42 BPB (MRCKB)
  inhibition at 1 µM: 12%
PRKG1
  inhibition at 1 µM: 11%
MAPKAPK3
  inhibition at 1 µM: 23%
PASK
  inhibition at 1 µM: 61%
STK3 (MST2)
  inhibition at 1 µM: -3%
AMPK A1/B1/G1
  inhibition at 1 µM: 76%
PRKCB1 (PKC beta I)
  inhibition at 1 µM: 6%
ERBB2 (HER2)
  inhibition at 1 µM: 0%
PDGFRA (PDGFR alpha)
  inhibition at 1 µM: 0%
PLK1
  inhibition at 1 µM: 1%
PRKG2 (PKG2)
  inhibition at 1 µM: -4%

## C=CC(=O)Nc1ccc2c(c1)n(C1CCN(Cc3ccc(-c4nc5cc[nH]c(=O)c5cc4-c4ccccc4)cc3)CC1)c(=O)n2C [24b]
CDC42 BPB (MRCKB)
  inhibition at 1 µM: 3%
PRKG1
  inhibition at 1 µM: 6%
MAPKAPK3
  inhibition at 1 µM: 23%
PASK
  inhibition at 1 µM: 4%
STK3 (MST2)
  inhibition at 1 µM: -13%
AMPK A1/B1/G1
  inhibition at 1 µM: 17%
PRKCB1 (PKC beta I)
  inhibition at 1 µM: 7%
ERBB2 (HER2)
  inhibition at 1 µM: -1%
PDGFRA (PDGFR alpha)
  inhibition at 1 µM: -5%
PLK1
  inhibition at 1 µM: 5%
PRKG2 (PKG2)
  inhibition at 1 µM: -4%
